What was measured:
Type in all cases: cell-based
[1] = test system: PTEN-expressing glioblastoma cells; test: Cell viability in PTEN-expressing glioblastoma cells (cabozantinib comparison)
Protocol: (§1) Glioblastoma cells were treated to produce two populations: PTEN-expressing and PTEN-deficient. These cells were then treated with either vehicle control, LY2584702, variable concentrations of cabozantinib, or a combination of LY2584702 and variable concentrations of cabozantinib. Cabozantinib is a small molecule inhibitor of RTKs, including TAM receptors. Cell viability was measured after culturing with the inhibitors.

[2] = test system: PTEN-deficient glioblastoma cells; test: Cell viability in PTEN-deficient glioblastoma cells (cabozantinib comparison)
Protocol: as §1

shNT LN229 cells = test: Cell viability (CytoTox Glo) in non-targeting shNT LN229 glioblastoma cells; conditions: serum-free, 72 hours
Protocol: (§2) LN229 glioblastoma cells were transduced with either short hairpin RNA (shRNA) lentiviral particles coding for non-targeting shRNA (shNT) or shRNA that targets PTEN mRNA (shPTEN) for inhibition and degradation. These cells were then treated with either vehicle control, 10 μM LY2584702, 0.1-20 μM merestinib, or a combination of 10 μM LY2584702 and 0.1-20 μM merestinib. Cell viability was measured using CytoTox Glo after culturing with inhibitors in serum-free conditions for 72 hours.

[3] = test system: PTEN-expressing U-PTEN U87MG cells; test: Cell viability (CytoTox Glo) in PTEN-expressing U-PTEN U87MG glioblastoma cells; conditions: U-PTEN U87MG (doxycycline-induced PTEN), serum-free, 72 hours
Protocol: (§3) FIG. 2 depicts a dose curve analysis showing the efficacy of the combination of LY2584702 with merestinib in PTEN-deficient U87MG glioblastoma cells. Viability was measured using CytoTox Glo after culturing with inhibitors in serum-free conditions for 72 hours. Doxycycline addition induced PTEN and protected cells from the cytotoxic effect of combination drug treatment.
(§4) U87MG glioblastoma cells were treated with doxycycline to induce PTEN expression (U-PTEN), while a separate set of U87 glioblastoma cells were treated with a similar amount of vector (U-vector). Thus, the U-vector cells were PTEN-deficient. These cells were then treated with either vehicle control, 10 μM LY2584702, 0.1-20 μM merestinib, or a combination of 10 μM LY2584702 and 0.1-20 μM merestinib. Cell viability was measured using CytoTox Glo after culturing with inhibitors in serum-free conditions for 72 hours.

[4] = test system: shPTEN LN229 glioblastoma cells; test: Cell viability (CytoTox Glo) in PTEN-deficient shPTEN LN229 glioblastoma cells; conditions: serum-free, 72 hours
Protocol: FIG. 1 depicts a dose curve analysis showing the efficacy of the combination of LY2584702 with merestinib in shPTEN LN229 glioblastoma cells. Viability was measured using CytoTox Glo after culturing with inhibitors in serum-free conditions for 72 hours.
as §2

[5] = test system: PTEN-deficient U-vector U87MG glioblastoma cells; test: Cell viability (CytoTox Glo) in PTEN-deficient U-vector U87MG glioblastoma cells; conditions: serum-free, 72 hours
Protocol: as §3, §4

[6] = variable concentrations of cabozantinib alone

Measured: cytotoxicity (cell viability)

COc1cc2nccc(Oc3ccc(NC(=O)C4(C(=O)Nc5ccc(F)cc5)CC4)cc3)c2cc1OC [cabozantinib]
not cytotoxic: [1]; [6] | [2]; [6]

Cc1ccc(C(=O)Nc2ccc(Oc3cc4cnn(C)c4cc3-c3cn[nH]c3)c(F)c2)c(=O)n1-c1ccc(F)cc1 [merestinib]
not cytotoxic: shNT LN229 cells; 0.1-20 μM merestinib alone | [3]; 0.1-20 μM merestinib alone | [4]; 0.1-20 μM merestinib alone | [5]; 0.1-20 μM merestinib alone

Cn1cc(-c2ccc(F)c(C(F)(F)F)c2)nc1C1CCN(c2ncnc3[nH]ncc23)CC1 [LY2584702]
not cytotoxic: [1]; LY2584702 alone | shNT LN229 cells; 10 μM LY2584702 alone | [3]; 10 μM LY2584702 alone | [4]; 10 μM LY2584702 alone | [2]; LY2584702 alone | [5]; 10 μM LY2584702 alone

Source: patent US12605370B2, “Agents and compositions for the treatment of glioblastoma” (University of Cincinnati, priority 2020, dated 2026)
